{
  "source": "the kinase profiling compilation of Christmann-Franck et al. (2016)",
  "assay_in_all_cases": "radiometric filter-binding kinase assay, Kinase HotSpot",
  "conditions_in_all_cases": "compound 0.5 µM; ATP 10 µM",
  "key": {"[1]": {"molecular_target": "MAP4K2 (human) (UniProt Q12851)"}, "[2]": {"molecular_target": "NTRK3 (human) (UniProt Q16288)"}, "[3]": {"molecular_target": "AKT3 (human) (UniProt Q9Y243)"}, "[4]": {"molecular_target": "RPS6KB1 (human) (UniProt P23443)"}, "[5]": {"molecular_target": "PRKD2 (human) (UniProt Q9BZL6)", "sequence (Q9BZL6 whole entry, looked up)": "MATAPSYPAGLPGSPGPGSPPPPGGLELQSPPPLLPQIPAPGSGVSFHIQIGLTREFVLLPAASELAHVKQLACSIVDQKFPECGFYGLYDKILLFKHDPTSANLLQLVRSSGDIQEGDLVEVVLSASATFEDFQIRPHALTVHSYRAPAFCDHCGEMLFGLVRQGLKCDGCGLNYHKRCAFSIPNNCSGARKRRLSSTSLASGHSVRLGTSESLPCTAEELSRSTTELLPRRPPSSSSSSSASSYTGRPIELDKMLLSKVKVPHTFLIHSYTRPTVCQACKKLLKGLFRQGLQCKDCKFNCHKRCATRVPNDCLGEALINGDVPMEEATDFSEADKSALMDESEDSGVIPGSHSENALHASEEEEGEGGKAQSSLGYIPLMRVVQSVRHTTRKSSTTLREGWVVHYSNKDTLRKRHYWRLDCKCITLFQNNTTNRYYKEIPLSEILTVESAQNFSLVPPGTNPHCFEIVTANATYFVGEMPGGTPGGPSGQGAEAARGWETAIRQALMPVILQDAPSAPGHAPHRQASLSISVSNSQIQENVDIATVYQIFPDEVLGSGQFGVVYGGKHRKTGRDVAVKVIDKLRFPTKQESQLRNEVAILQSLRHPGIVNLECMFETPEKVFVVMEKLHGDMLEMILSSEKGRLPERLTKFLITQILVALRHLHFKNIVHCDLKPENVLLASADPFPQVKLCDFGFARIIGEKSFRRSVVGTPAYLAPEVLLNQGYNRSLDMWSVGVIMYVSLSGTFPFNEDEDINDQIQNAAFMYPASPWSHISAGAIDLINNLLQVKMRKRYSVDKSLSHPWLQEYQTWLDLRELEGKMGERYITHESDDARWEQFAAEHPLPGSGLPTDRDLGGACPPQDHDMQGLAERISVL"}, "[6]": {"molecular_target": "HCK (human) (UniProt P08631)"}, "[7]": {"molecular_target": "OXSR1 (human) (UniProt O95747)"}, "[8]": {"molecular_target": "VRK1 (human) (UniProt Q99986)"}, "[9]": {"molecular_target": "EPHB3 (human) (UniProt P54753)"}, "[10]": {"molecular_target": "SRC (human) (UniProt P12931)"}, "[11]": {"molecular_target": "IKBKB (human) (UniProt O14920)"}, "[12]": {"molecular_target": "SLK (human) (UniProt Q9H2G2)", "sequence (Q9H2G2 whole entry, looked up)": "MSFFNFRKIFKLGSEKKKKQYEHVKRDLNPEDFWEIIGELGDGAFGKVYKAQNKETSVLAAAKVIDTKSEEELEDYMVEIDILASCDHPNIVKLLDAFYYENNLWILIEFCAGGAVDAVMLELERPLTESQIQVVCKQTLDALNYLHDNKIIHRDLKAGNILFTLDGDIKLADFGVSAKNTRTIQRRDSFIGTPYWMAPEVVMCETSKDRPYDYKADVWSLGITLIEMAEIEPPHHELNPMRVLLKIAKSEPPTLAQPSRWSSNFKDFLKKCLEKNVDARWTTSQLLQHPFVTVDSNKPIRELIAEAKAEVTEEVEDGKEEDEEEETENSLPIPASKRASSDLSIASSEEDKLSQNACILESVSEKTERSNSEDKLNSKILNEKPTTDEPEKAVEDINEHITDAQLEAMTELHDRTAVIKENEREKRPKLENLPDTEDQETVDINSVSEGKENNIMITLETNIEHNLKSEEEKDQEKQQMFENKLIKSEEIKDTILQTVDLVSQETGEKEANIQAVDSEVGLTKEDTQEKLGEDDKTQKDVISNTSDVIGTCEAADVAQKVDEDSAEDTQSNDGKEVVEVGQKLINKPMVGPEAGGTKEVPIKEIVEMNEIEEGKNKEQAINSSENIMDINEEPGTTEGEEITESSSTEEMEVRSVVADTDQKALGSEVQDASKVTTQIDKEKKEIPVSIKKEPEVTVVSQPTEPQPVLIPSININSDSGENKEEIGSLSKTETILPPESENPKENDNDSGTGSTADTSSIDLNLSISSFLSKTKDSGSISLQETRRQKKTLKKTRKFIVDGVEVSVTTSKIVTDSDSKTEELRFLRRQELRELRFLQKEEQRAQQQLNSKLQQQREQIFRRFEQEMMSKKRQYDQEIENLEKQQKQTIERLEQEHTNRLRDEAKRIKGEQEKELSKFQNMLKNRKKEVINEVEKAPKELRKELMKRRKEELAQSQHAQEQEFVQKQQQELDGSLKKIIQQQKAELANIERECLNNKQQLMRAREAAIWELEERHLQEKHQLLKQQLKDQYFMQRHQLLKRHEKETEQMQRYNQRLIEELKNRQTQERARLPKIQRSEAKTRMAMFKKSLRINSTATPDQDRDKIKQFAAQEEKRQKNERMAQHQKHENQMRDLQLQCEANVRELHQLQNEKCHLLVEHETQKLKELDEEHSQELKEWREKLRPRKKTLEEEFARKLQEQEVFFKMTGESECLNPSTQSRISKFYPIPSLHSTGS"}, "[13]": {"molecular_target": "PRKCA (human) (UniProt P17252)"}, "[14]": {"molecular_target": "TTK (human) (UniProt P33981)"}, "[15]": {"molecular_target": "DAPK1 (human) (UniProt P53355)", "sequence (P53355 whole entry, looked up)": "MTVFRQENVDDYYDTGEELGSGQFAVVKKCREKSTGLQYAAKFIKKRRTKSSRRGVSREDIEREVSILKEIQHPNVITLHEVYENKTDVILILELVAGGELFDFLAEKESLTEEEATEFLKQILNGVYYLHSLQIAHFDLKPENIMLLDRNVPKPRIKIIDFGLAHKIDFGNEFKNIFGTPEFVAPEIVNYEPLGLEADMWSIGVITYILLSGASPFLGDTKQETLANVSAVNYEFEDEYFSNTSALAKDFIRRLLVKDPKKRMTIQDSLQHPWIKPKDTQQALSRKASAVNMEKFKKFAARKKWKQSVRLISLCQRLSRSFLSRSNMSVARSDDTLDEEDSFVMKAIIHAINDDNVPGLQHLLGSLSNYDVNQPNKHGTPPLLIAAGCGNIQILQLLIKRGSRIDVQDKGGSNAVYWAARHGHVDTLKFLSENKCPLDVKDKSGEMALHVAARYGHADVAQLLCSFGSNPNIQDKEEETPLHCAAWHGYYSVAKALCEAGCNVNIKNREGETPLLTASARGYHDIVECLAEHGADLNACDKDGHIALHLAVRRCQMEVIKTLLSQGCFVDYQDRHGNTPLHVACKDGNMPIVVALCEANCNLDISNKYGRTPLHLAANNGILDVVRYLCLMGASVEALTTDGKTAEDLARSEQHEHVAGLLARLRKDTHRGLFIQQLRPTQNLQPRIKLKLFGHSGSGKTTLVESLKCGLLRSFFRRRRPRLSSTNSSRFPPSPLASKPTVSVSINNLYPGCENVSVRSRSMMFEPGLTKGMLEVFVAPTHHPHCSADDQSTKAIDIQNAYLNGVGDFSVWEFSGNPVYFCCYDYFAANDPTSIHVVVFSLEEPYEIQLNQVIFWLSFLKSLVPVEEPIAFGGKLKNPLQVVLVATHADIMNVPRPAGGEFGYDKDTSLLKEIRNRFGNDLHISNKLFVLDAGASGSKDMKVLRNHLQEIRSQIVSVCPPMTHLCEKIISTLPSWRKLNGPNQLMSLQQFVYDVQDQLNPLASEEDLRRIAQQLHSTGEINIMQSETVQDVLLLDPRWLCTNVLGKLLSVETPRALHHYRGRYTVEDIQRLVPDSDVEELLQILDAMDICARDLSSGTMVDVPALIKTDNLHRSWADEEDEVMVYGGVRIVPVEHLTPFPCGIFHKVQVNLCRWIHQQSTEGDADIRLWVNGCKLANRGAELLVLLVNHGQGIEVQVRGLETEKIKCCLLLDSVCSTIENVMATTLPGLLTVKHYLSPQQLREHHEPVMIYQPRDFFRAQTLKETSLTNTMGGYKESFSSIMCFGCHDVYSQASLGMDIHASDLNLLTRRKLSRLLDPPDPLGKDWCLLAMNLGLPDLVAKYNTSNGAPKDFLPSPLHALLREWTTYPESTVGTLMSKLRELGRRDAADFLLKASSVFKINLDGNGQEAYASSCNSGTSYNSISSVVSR"}, "[16]": {"molecular_target": "NEK3 (human) (UniProt P51956)"}, "[17]": {"molecular_target": "CDK5 CDK5R1 p25 (human) (UniProt Q00535+Q15078)"}, "[18]": {"molecular_target": "CDK7 CCNH MNAT1 (human) (UniProt P50613+P51948+P51946)"}, "[19]": {"molecular_target": "MAPK13 (human) (UniProt O15264)"}, "[20]": {"molecular_target": "ABL1 (human) (UniProt P00519)"}, "[21]": {"molecular_target": "ALK (human) (UniProt Q9UM73)"}, "[22]": {"molecular_target": "MAP3K5 (human) (UniProt Q99683)"}, "[23]": {"molecular_target": "STK24 (human) (UniProt Q9Y6E0)"}, "[24]": {"system": "SGK1 (human), O00141 [S422D]"}, "[25]": {"molecular_target": "CDK3 CCNE1 (human) (UniProt Q00526+P24864)"}, "[26]": {"molecular_target": "MAP3K3 (human) (UniProt Q99759)", "sequence (Q99759 whole entry, looked up)": "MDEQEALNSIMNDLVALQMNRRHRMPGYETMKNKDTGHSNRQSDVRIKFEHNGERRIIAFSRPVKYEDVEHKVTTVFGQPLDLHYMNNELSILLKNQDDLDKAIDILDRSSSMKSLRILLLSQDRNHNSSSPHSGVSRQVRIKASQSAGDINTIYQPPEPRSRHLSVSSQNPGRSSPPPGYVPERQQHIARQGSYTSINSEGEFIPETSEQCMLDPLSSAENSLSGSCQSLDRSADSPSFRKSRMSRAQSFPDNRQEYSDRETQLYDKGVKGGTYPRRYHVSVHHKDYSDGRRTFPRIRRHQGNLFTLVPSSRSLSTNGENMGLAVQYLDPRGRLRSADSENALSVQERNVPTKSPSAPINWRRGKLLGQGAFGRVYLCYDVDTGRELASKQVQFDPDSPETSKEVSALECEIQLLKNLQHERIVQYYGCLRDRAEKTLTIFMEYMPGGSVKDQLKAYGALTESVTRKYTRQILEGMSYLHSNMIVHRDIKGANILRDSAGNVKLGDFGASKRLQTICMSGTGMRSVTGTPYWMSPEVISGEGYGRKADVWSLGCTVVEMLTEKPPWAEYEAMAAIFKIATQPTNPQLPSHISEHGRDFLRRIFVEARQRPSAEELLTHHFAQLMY"}, "[27]": {"molecular_target": "MERTK (human) (UniProt Q12866)"}, "[28]": {"molecular_target": "CAMK1G (human) (UniProt Q96NX5)"}, "[29]": {"molecular_target": "PAK4 (human) (UniProt O96013)"}, "[30]": {"molecular_target": "RIPK2 (human) (UniProt O43353)"}, "[31]": {"molecular_target": "MUSK (human) (UniProt O15146)"}, "[32]": {"molecular_target": "GRK7 (human) (UniProt Q8WTQ7)"}, "[33]": {"molecular_target": "MYLK (human) (UniProt Q15746)"}, "[34]": {"molecular_target": "RPS6KA6 KD1 KD2 (human) (UniProt Q9UK32)"}, "[35]": {"molecular_target": "PRKCD (human) (UniProt Q05655)", "sequence (Q05655 whole entry, looked up)": "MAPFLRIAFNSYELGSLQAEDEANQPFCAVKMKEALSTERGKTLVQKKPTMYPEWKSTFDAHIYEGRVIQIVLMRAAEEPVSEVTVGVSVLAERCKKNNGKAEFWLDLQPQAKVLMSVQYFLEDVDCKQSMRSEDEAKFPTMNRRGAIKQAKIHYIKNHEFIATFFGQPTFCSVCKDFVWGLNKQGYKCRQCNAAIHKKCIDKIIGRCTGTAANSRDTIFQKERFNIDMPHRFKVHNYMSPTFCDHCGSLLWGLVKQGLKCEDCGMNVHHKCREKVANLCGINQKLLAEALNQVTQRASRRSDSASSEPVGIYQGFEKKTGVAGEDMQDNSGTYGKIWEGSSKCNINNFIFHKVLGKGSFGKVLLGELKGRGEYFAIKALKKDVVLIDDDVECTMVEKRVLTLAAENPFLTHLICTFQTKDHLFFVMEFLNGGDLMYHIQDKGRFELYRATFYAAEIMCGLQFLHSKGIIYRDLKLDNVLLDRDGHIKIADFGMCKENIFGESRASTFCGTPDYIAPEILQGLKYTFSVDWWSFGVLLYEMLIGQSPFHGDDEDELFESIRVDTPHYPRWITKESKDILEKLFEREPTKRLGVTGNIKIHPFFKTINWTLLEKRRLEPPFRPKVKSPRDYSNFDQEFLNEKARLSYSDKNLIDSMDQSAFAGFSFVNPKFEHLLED"}, "[36]": {"molecular_target": "ERBB2 (human) (UniProt P04626)"}, "[37]": {"molecular_target": "HIPK2 (human) (UniProt Q9H2X6)"}, "[38]": {"molecular_target": "MARK1 (human) (UniProt Q9P0L2)"}, "[39]": {"molecular_target": "CSF1R (human) (UniProt P07333)"}, "[40]": {"molecular_target": "EPHA8 (human) (UniProt P29322)"}, "[41]": {"molecular_target": "CDK9 CCNT1 (human) (UniProt P50750+O60563)"}},
  "data": [
    {"smiles": "N/C(=N\\N=C/c1ccc(-c2cccc([N+](=O)[O-])c2)o1)N[N+](=O)[O-]", "values": [
      {"measurement": "residual activity", "setting": "[1]", "value": 115, "unit": "%"},
      {"measurement": "residual activity", "setting": "[2]", "value": 104, "unit": "%"},
      {"measurement": "residual activity", "setting": "[3]", "value": 94.3, "unit": "%"},
      {"measurement": "residual activity", "setting": "[4]", "value": 100, "unit": "%"},
      {"measurement": "residual activity", "setting": "[5]", "value": 94.3, "unit": "%"},
      {"measurement": "residual activity", "setting": "[6]", "value": 114, "unit": "%"},
      {"measurement": "residual activity", "setting": "[7]", "value": 102, "unit": "%"},
      {"measurement": "residual activity", "setting": "[8]", "value": 95.1, "unit": "%"},
      {"measurement": "residual activity", "setting": "[9]", "value": 91.7, "unit": "%"},
      {"measurement": "residual activity", "setting": "[10]", "value": 99, "unit": "%"},
      {"measurement": "residual activity", "setting": "[11]", "value": 86, "unit": "%"},
      {"measurement": "residual activity", "setting": "[12]", "value": 101, "unit": "%"},
      {"measurement": "residual activity", "setting": "[13]", "value": 115, "unit": "%"},
      {"measurement": "residual activity", "setting": "[14]", "value": 95.9, "unit": "%"},
      {"measurement": "residual activity", "setting": "[15]", "value": 97.8, "unit": "%"},
      {"measurement": "residual activity", "setting": "[16]", "value": 101, "unit": "%"},
      {"measurement": "residual activity", "setting": "[17]", "value": 96.5, "unit": "%"},
      {"measurement": "residual activity", "setting": "[18]", "value": 100, "unit": "%"},
      {"measurement": "residual activity", "setting": "[19]", "value": 101, "unit": "%"},
      {"measurement": "residual activity", "setting": "[20]", "value": 101, "unit": "%"},
      {"measurement": "residual activity", "setting": "[21]", "value": 93.6, "unit": "%"},
      {"measurement": "residual activity", "setting": "[22]", "value": 92.5, "unit": "%"},
      {"measurement": "residual activity", "setting": "[23]", "value": 87.7, "unit": "%"},
      {"measurement": "residual activity", "setting": "[24]", "value": 92.4, "unit": "%"},
      {"measurement": "residual activity", "setting": "[25]", "value": 85, "unit": "%"},
      {"measurement": "residual activity", "setting": "[26]", "value": 93.8, "unit": "%"},
      {"measurement": "residual activity", "setting": "[27]", "value": 92.3, "unit": "%"},
      {"measurement": "residual activity", "setting": "[28]", "value": 104, "unit": "%"},
      {"measurement": "residual activity", "setting": "[29]", "value": 95.3, "unit": "%"},
      {"measurement": "residual activity", "setting": "[30]", "value": 106, "unit": "%"},
      {"measurement": "residual activity", "setting": "[31]", "value": 94.4, "unit": "%"},
      {"measurement": "residual activity", "setting": "[32]", "value": 97, "unit": "%"},
      {"measurement": "residual activity", "setting": "[33]", "value": 92.5, "unit": "%"},
      {"measurement": "residual activity", "setting": "[34]", "value": 96.9, "unit": "%"},
      {"measurement": "residual activity", "setting": "[35]", "value": 94.2, "unit": "%"},
      {"measurement": "residual activity", "setting": "[36]", "value": 100, "unit": "%"},
      {"measurement": "residual activity", "setting": "[37]", "value": 103, "unit": "%"},
      {"measurement": "residual activity", "setting": "[38]", "value": 90.7, "unit": "%"},
      {"measurement": "residual activity", "setting": "[39]", "value": 94.5, "unit": "%"},
      {"measurement": "residual activity", "setting": "[40]", "value": 102, "unit": "%"},
      {"measurement": "residual activity", "setting": "[41]", "value": 109, "unit": "%"}
    ]},
    {"smiles": "O=C1NC(=O)c2c1c1c3ccccc3[nH]c1c1[nH]c3cc(Br)ccc3c21", "values": [
      {"measurement": "residual activity", "setting": "[1]", "value": 74.1, "unit": "%"},
      {"measurement": "residual activity", "setting": "[2]", "value": 28.8, "unit": "%"},
      {"measurement": "residual activity", "setting": "[3]", "value": 91.1, "unit": "%"},
      {"measurement": "residual activity", "setting": "[4]", "value": 45.2, "unit": "%"},
      {"measurement": "residual activity", "setting": "[5]", "value": 45.9, "unit": "%"},
      {"measurement": "residual activity", "setting": "[6]", "value": 92.4, "unit": "%"},
      {"measurement": "residual activity", "setting": "[7]", "value": 95.8, "unit": "%"},
      {"measurement": "residual activity", "setting": "[8]", "value": 92.3, "unit": "%"},
      {"measurement": "residual activity", "setting": "[9]", "value": 91.9, "unit": "%"},
      {"measurement": "residual activity", "setting": "[10]", "value": 88.9, "unit": "%"},
      {"measurement": "residual activity", "setting": "[11]", "value": 92.2, "unit": "%"},
      {"measurement": "residual activity", "setting": "[12]", "value": 90.9, "unit": "%"},
      {"measurement": "residual activity", "setting": "[13]", "value": 72.5, "unit": "%"},
      {"measurement": "residual activity", "setting": "[14]", "value": 98.7, "unit": "%"},
      {"measurement": "residual activity", "setting": "[15]", "value": 73.5, "unit": "%"},
      {"measurement": "residual activity", "setting": "[16]", "value": 88.3, "unit": "%"},
      {"measurement": "residual activity", "setting": "[17]", "value": 43.4, "unit": "%"},
      {"measurement": "residual activity", "setting": "[18]", "value": 93.1, "unit": "%"},
      {"measurement": "residual activity", "setting": "[19]", "value": 99.1, "unit": "%"},
      {"measurement": "residual activity", "setting": "[20]", "value": 83.3, "unit": "%"},
      {"measurement": "residual activity", "setting": "[21]", "value": 94, "unit": "%"},
      {"measurement": "residual activity", "setting": "[22]", "value": 94.9, "unit": "%"},
      {"measurement": "residual activity", "setting": "[23]", "value": 80.1, "unit": "%"},
      {"measurement": "residual activity", "setting": "[24]", "value": 47.6, "unit": "%"},
      {"measurement": "residual activity", "setting": "[25]", "value": 88.1, "unit": "%"},
      {"measurement": "residual activity", "setting": "[26]", "value": 105, "unit": "%"},
      {"measurement": "residual activity", "setting": "[27]", "value": 69.1, "unit": "%"},
      {"measurement": "residual activity", "setting": "[28]", "value": 94.5, "unit": "%"},
      {"measurement": "residual activity", "setting": "[29]", "value": 96.4, "unit": "%"},
      {"measurement": "residual activity", "setting": "[30]", "value": 99.6, "unit": "%"},
      {"measurement": "residual activity", "setting": "[31]", "value": 88.4, "unit": "%"},
      {"measurement": "residual activity", "setting": "[32]", "value": 98.2, "unit": "%"},
      {"measurement": "residual activity", "setting": "[33]", "value": 85.3, "unit": "%"},
      {"measurement": "residual activity", "setting": "[34]", "value": 32.4, "unit": "%"},
      {"measurement": "residual activity", "setting": "[35]", "value": 99.1, "unit": "%"},
      {"measurement": "residual activity", "setting": "[36]", "value": 101, "unit": "%"},
      {"measurement": "residual activity", "setting": "[37]", "value": 107, "unit": "%"},
      {"measurement": "residual activity", "setting": "[38]", "value": 42, "unit": "%"},
      {"measurement": "residual activity", "setting": "[39]", "value": 96, "unit": "%"},
      {"measurement": "residual activity", "setting": "[40]", "value": 102, "unit": "%"},
      {"measurement": "residual activity", "setting": "[41]", "value": 87.5, "unit": "%"}
    ]}
  ]
}
